{
  "source": "patent US9725490B2",
  "about": "“ERAP1-derived peptide and use thereof” (TOKUSHIMA UNIVERSITY, priority 2011, dated 2017)",
  "key": {"[1]": {"tested_on": "phosphorylation of ERAP1 and PHB2/REA", "assay": "PKA inhibition by H-89, immunoblotting of ERAP1 and PHB2/REA phosphorylation, MCF-7", "assay_type": "cell-based, human", "protocol": "Then, the cell lysate solution was immunoprecipitated with anti-ERAP1 antibody. Furthermore, the phosphatase activity of the obtained sample was calculated. […] MCF-7 cells suppressed for expression of PKA or PKB, or both of PKA and PKB by siRNA method, were treated with 10 μM ERAP1 peptide. Then, immediately, the cells were stimulated with 10 nM E2 for 24 hours. […] MCF-7 cells were treated with H-89 for 30 minutes and washed with PBS. Then, the cells were treated with 10 μM ERAP1-PEPTIDE. Then, immediately, the cells were stimulated with 10 nM E2 for 24 hours. […] (S39) is caused. MCF-7 cells suppressed for expression of PKA by siRNA method, were stimulated with 10 nM E2 for 24 hours. In addition, MCF-7 cells were treated with H-89 for 30 minutes and washed with PBS. Then, immediately, the cells were stimulated with 10 nM E2 for 24 hours. […] Then, immediately, the cells were stimulated with 10 nM E2 for 24 hours. […] MCF-7 cells suppressed for expression of PKCα by siRNA method were treated with 10 μM ERAP1 peptide. Then, immediately, the cells were stimulated with 10 nM E2 for 24 hours. The cells were fractionated into cytoplasm and nuclear fractions by specific gravity centrifugation."}, "ERα": {"tested_on": "ERα", "assay": "ERα down-regulation and polyubiquitination in MCF-7 cells", "assay_type": "cell-based, human", "conditions": "MCF-7, E2 in the presence of MG132, no peptide", "protocol": "FIG. 4-5 is a diagram illustrating that the ERAP1-peptide promotes nuclear translocation of PHB2. […] Then, the protein level and the mRNA level for the expression of ERα were obtained by Western blotting (the upper panel: Protein) and semi-quantitative RT-PCR (the lower panel: mRNA), respectively. β-actin is a loading control for each. […] MCF-7 cells were treated with the ERAP1-peptide and/or E2 in the presence of 1 μM MG-132 for 1 hour. Then, the cell lysate was immunoprecipitated with anti-ERα antibody.\nDown-regulation of ERα was evaluated by semi-quantitative reverse transcription PCR. Complete RNA was extracted using RNeasy Mini purification kit (Qiagen) from E2-treated cells in the presence or in the absence of the ERAP1 peptide, and reverse-transcribed into cDNA using Superscript II reverse transcriptase (Invitrogen), oligo dT primer (nvitrogen) and 25 mM dNTP Mixture (Invitrogen). mRNAs of ERα and β-actin were measured with GeneAmp PCR system (Applied Biosystems, Foster, Calif., USA). The primers are as described below: […]"}, "[2]": {"molecular_target": "T1, binding of inherent ERAP1 and inherent PHB2/REA (Homo sapiens, UniProt Q99623)", "T1 construct": "endogenous in cells; host or cells: MCF-7 and KPL-3C breast cancer cells", "T1 sequence (Q99623 2-299 limits assumed)": "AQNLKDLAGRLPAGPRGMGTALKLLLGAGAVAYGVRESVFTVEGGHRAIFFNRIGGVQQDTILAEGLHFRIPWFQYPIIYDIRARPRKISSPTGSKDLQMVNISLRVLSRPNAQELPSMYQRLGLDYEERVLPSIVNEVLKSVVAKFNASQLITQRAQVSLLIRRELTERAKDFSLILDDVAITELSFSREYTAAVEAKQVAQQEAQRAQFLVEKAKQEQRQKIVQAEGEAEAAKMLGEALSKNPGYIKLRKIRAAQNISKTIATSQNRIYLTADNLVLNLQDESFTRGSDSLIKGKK", "assay": "Inhibition of ERAP1-PHB2/REA binding in cells, immunoprecipitation-Western blotting", "assay_type": "cell-based", "conditions": "MCF-7 and KPL-3C cells; 10 μM peptide; 10 nM E2 24 hours"}, "[3]": {"tested_on": "transcriptional activity of ERα (ERE)", "assay": "ERE-luciferase reporter assay in MCF-7 cells", "assay_type": "cell-based, human", "conditions": "10 nM E2 24 hours", "protocol": "FIG. 3-2 is a diagram illustrating promotion effect of PHB2 nuclear translocation and suppression effect of the transcriptional activation of ER by ERAP1-peptide treatment. (C) illustrates representative images of stained immune cells, showing the localization of the ERAP1-peptide (HA-tagged ERAP1-peptide) and PHB2. MCF-7 cells were treated with 10 μM HA-tagged ERAP1-peptide for 24 hours in the presence or in the absence of 10 nM E2. After the immobilization, the cells were subjected to immunonfluorescent staining using an anti-HA antibody, an anti-PHB2 antibody and DAPI (for discriminating the nucleus). The arrow indicates the nuclear-translocated ERAP1-peptide. […] Then, immediately, the cells were stimulated with 10 nM E2 for 24 hours. TAM indicates the tamoxifen treatment.\n(§1) FIG. 3-3 is as diagram illustrating the results of the luciferase assay by which the inhibition effect of the ERAP1-peptide was evaluated. MCF-7 cells temporarily transfected with an ERE-luciferase reporter vector (F) or an AP-1-luciferase reporter vector (F) were treated with the ERAP1-peptide, the scramble peptide or the mutant peptide in the concentrations shown in the […]. Then, immediately, the cells were stimulated with 10 nM E2 for 24 hours. TAM indicates the tamoxifen treatment.\n(§2) FIG. 4-3 is a diagram illustrating that the ERAP1-peptide promotes nuclear translocation of PHB2. (C) and (D) are figures that show the results of the luciferase assay by which the inhibition effect of the ERAP1-peptide on the ERα transcriptional activity was evaluated. MCF-7 cells temporarily transfected with an ERE-luciferase reporter vector (C) or an AP-1-luciferase reporter vector (D) were treated with the ERAP1-peptide in the concentrations shown in the figure or 10 nM tamoxifen. Then, immediately, the cells were stimulated with 10 nM E2 thr 24 hours.\n(§3) For ERE reporter assay, MCF-7 cells were transfected with ERE reporter (SABiosciences, Frederick, Md., USA) in accordance with the instruction of the manufacturer. For AP-1 reporter assay, MCF-7 cells were transfected with AP-1 reporter (mouse IL-11 promoter comprising two tandem AP-1 sites subcloned into PGL2-basic vector), c-fos, c-Jun and pRL-TK as an internal standard. After 16 hours from the transfection, the culture medium was exchanged with an assay culture medium (Opti-MEM, 10% FBS, 0.1 mM NEAA, 0.1 mM Sodium pyruvate and 10 μg/ml insulin) After 24 hours from the transfection, the cells were treated with E2 and/or the ERAP1-peptide or 24 hours. The cells were harvested, and the activities of luciferase and Renilla-luciferase were evaluated using Promega dual luciferase reporter assay (Tokyo, Japan). In consideration of the transfection efficiency, all of the data were standardized by the activity of Renilla-luciferase."}, "[4]": {"tested_on": "transcriptional activity of ERα (AP-1)", "assay": "AP-1-luciferase reporter assay in MCF-7 cells", "assay_type": "cell-based, human", "conditions": "10 nM E2 24 hours", "protocol": "as §1, §2, §3"}, "MCF-7 cells": {"tested_on": "MCF-7 cells", "assay": "E2-dependent cell proliferation assay (MTT/CCK-8), MCF-7", "assay_type": "cell-based, human", "conditions": "10 nM E2, up to 24 hours", "protocol": "FIG. 6-1 is a diagram illustrating that ERAP1-peptide treatment suppresses ERα-dependent cell proliferation of breast cancer cell lines. (A) and (B) show the results of MTT assay by which the inhibition effect of the ERAP1-peptide in the E2-dependent cell proliferation was evaluated. MCF-7 cells were treated with the ERAP1-peptide (A, B) the ERAP1-scramble peptide (B) or the ERAP1-mutant peptide (B).\nFIG. 7-1 is a diagram illustrating that ERAP1-peptide treatment suppresses ERα-dependent cell proliferation of breast cancer cell lines. […] KPL-3C cells were treated with the ERAP1-peptide, the scramble peptide or the mutant peptide. Then, immediately, the cells were stimulated with 10 nM E2 for 24 hours. […] Then, immediately, the cells were stimulated with 10 nM E2. Then, the ERAP1-peptide was added every day for […]. […] The arrow indicates addition of the ERAP1-peptide.\nFIG. 7-3 is a diagram illustrating that ERAP1-peptide treatment suppresses ERα-dependent cell proliferation of breast cancer cell lines. […] MCF-7 cells were treated with 10 μM ERAP1-peptide. Then, immediately, the cells were stimulated with 10 nM E2 (white square). Then, 10 μM ERAP1-peptide was added every day for four days (black square).\nFIG. 20 is a diagram illustrating the results of evaluations for the influence of the difference of the sequence on E2-dependent cell proliferation suppression effect. […] Then, immediately, the cells were stimulated with E2 for 24 hours.\nMCF-7 cells were suspended in MEM (Invitrogen, Carlsbad, Calif., USA) reinforced with 10% FBS (Nichirei Biosciences, Tokyo, Japan), 1% antibiotic/antimycotic solution (Invitrogen), 0.1 mM NEAA (Tnvitrogen), 1 mM sodium pyruvate and 10 μg/ml insulin (Sigma, St. Louis, Mo., USA). Then, the cell suspension was seeded in a 48-well plate (2×10^4 cells/200 μl), a 24-well plate (1×10^5 cells/1 ml), a 6-well plate (5×10^5 cells/2 ml) or 10 cm dish (2×10^6 cells/10 ml). The cells were maintained at 37° C. in humidified atmosphere containing 5% carbon dioxide. On the next day of the seeding, the culture medium was exchanged with phenol red-free DMEM/F12 (Invitrogen) reinforced with FBS, an antibiotic/antimycotic solution, NEAA, sodium pyruvate and insulin. After 24 hours, the cells were treated with 10 nM 17β estradiol (E2, Sigma). The ERAP-1 peptide was added just before the E2 stimulation in the inhibition test.\nUsing Cell-Counting Kit-8 (CCK-8, Dojindo, Kumamoto, Japan), the cell proliferation assay was performed. […] Then, the absorbance at 450 nm was measured and the number of living cells in each well was calculated.\nThe cell proliferation assay was evaluated using Cell-Counting Kit-8 (CCK-8, Dojindo, Kumamoto, Japan). […] Then, 100 μl from each well was moved to a 96-well plate, and the absorbance at 450 nm was measured with a microplate reader."}, "[5]": {"conditions": "H-89 30 minutes, then E2 24 hours"}, "[6]": {"conditions": "comparison with siPKA, increasing dose of H-89"}},
  "note": "Where a SMILES comes first, the peptide text is derived from it. The star is where a group is joined. Cbz = O=C(OCc1ccccc1)*",
  "data": [
    {"molecule": "O=S(=O)(NCCNC/C=C/c1ccc(Br)cc1)c1cccc2cnccc12", "note": "[H-89]", "values": [
      {"measurement": "phosphorylation of the threonine residue of ERAP1", "setting": "[1]; [5]", "result": "decreased in dose-dependent manner"},
      {"measurement": "phosphorylations of the serine and tyrosine residues of ERAP1", "setting": "[1]; [5]", "result": "remarkably decreased at 0.5 μM"},
      {"measurement": "Ser39 phosphorylation of PHB2/REA after E2 treatment", "setting": "[1]; [6]", "result": "as the dose of H-89 increased, Ser39 phosphorylation of PHB2/REA also decreased"},
      {"measurement": "phosphorylation of the serine residue of ERAP1 after E2 treatment", "setting": "[1]; [6]", "result": "as the dose of H-89 increased, disappearance of the phosphorylation was confirmed"},
      {"measurement": "phosphorylation of Ser39 of PHB2/REA", "setting": "[1]; stimulated by E2 and treated with H-89, no peptide", "result": "remarkable recovery was recognized"},
      {"measurement": "phosphorylation of Ser39 of PHB2/REA", "setting": "[1]; with ERAP-peptide, 20 μM H-89", "result": "the phosphorylation completely disappeared"}
    ]},
    {"molecule": "CC(C)C[C@@H](C=O)NC(=O)[C@H](CC(C)C)NC(=O)[C@H](CC(C)C)NC(=O)OCc1ccccc1", "note": "[MG132, reference compound] (Cbz-Leu-Leu-Leu-aldehyde)", "values": [
      {"measurement": "protein decrease and polyubiquitination of ERα with E2", "setting": "ERα", "result": "the protein decrease of ERα was suppressed and polyubiquitination of ERα was recognized"}
    ]},
    {"molecule": "AMLSALTLALRQR (SEQ ID NO: 29) (ERAP1-mutant peptide)", "values": [
      {"measurement": "inhibition of the binding of inherent ERAP1 and inherent PHB2/REA", "setting": "[2]", "result": "not recognized in any of the cells"},
      {"measurement": "transcriptional activity of ERα in ERE", "setting": "[3]", "result": "no change was recognized"},
      {"measurement": "transcriptional activity of ERα in AP-1", "setting": "[4]", "result": "no change was recognized"}
    ]},
    {"molecule": "ATLSQMLSDLTLQ (SEQ ID NO: 30) (ERAP1 dominant negative peptide) [ERAP1-peptide-2, 161-173 amino acid residues of ERAP1]", "values": [
      {"measurement": "E2-dependent cell proliferation", "setting": "MCF-7 cells", "result": "suppressed the E2-dependent cell proliferation in dose-dependent manner"}
    ]}
  ]
}
